This note sets out measurements from ChEMBL document CHEMBL1687832, “Polymyxin-resistant clinical isolates of Escherichia coli” (Antimicrob Agents Chemother, 2011).

Holding throughout (format): functional, organism-based
Assay [1] deals with Escherichia coli. Description: Antimicrobial activity against drug-resistant Escherichia coli isolate 1 expressing beta-lactamase CTX-M-15 isolated from urine of patient with history of hypertension, hyperlipidemia by broth microdilution method. In general terms: In broth dilution the organism is exposed to a series of concentrations in liquid medium.
The test system of assay [2] is Escherichia coli. The assay can be described thus: Antimicrobial activity against Escherichia coli ATCC 25922 by broth microdilution method.
Assay [3] deals with Escherichia coli. Description: Antimicrobial activity against drug-resistant Escherichia coli isolate 1 expressing beta-lactamase CTX-M-15 isolated from urine of patient with history of hypertension, hyperlipidemia by Etest.
Assay [4] relates to Escherichia coli. Description: Antimicrobial activity against drug-resistant Escherichia coli isolate 2 expressing beta-lactamase CTX-M-15 isolated from patient past medical history included multiple courses of compound treatment, multiple sclerosis, pulmonary embolism, seizure disorder, tracheostomy for respiratory failure, gastrostomy secondary to dysphagia, congestive heart failure, diabetes mellitus, and peripheral inserted central by microdilution method.

Assay [5] deals with Escherichia coli. Description: Antimicrobial activity against Escherichia coli ATCC 25922 by Etest.
In assay [6] the test system is Escherichia coli. Description: Antimicrobial activity against drug-resistant Escherichia coli isolate 2 expressing beta-lactamase CTX-M-15 isolated from patient past medical history included multiple courses of compound treatment, multiple sclerosis, pulmonary embolism, seizure disorder, tracheostomy for respiratory failure, gastrostomy secondary to dysphagia, congestive heart failure, diabetes mellitus, and peripheral inserted central by Etest.

Usually MBC stands for the lowest tested concentration that kills the bacteria rather than only halting them. A low value points to greater bactericidal potency. As usually defined, the MIC is the lowest concentration found to suppress growth. Read a high MIC as weaker potency.

For POLYMYXIN B, the minimal bactericidal concentration (MBC) came out at 32 µg/mL with Escherichia coli [1], 0.5 µg/mL with Escherichia coli [2] and 32 µg/mL in the assay with Escherichia coli [4]. Further, the minimal inhibitory concentration (MIC) worked out at 16 µg/mL in the assay on Escherichia coli [1]; 0.5 µg/mL in the assay on Escherichia coli [2]; 16 µg/mL against Escherichia coli [3]; 16 µg/mL in the assay with Escherichia coli [4]; 1 µg/mL against Escherichia coli [5]; 24 µg/mL against Escherichia coli [6].

For the sequence COLISTIN, the minimal bactericidal concentration (MBC) against Escherichia coli [1] stood at 16 µg/mL; in the assay on Escherichia coli [2] it was 1 µg/mL; with Escherichia coli [4], 32 µg/mL. In addition, the MIC in the assay with Escherichia coli [1] is 16 µg/mL; in the assay with Escherichia coli [2], 1 µg/mL; in the assay on Escherichia coli [3], 16 µg/mL; with Escherichia coli [4] it was 32 µg/mL; with Escherichia coli [5], 1.5 µg/mL; with Escherichia coli [6], 16 µg/mL.
